These results are taken from PubChem BioAssay (NCI).

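Five concentrations, 48 hours, 96-well plates. GI50 = concentration required for 50% inhibition of growth. TGI denotes the concentration required for complete inhibition of growth.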

In the first assay the test system is SR leukemia. As to the kind of experiment: NCI anticancer screen, dose series, 48 h.
Turning to `C=CCN(CC=C)C(=O)c1cc(C)nc2c1c(=O)n(-c1ccccc1)c(=O)n2CCCN1CCN(c2ccccc2OC)CC1`, the GI50 is over 50 µM and the TGI is over 50 µM.
`COCCOC1=C(Cl)C(=O)c2ccccc2C1=O`: the GI50 was 3.17 µM and the TGI stood at 9.48 µM.
As to `CCN(CC)c1ccc2nc3ccc(=[N+](CC)CC)cc-3oc2c1`, the GI50 is 0.424 µM and the TGI is over 44.3 µM.
As for `CCOC(=O)/C(=C\c1cccc(C)c1)C(C)=O`, the TGI worked out at 84.5 µM.
Turning to `COC12C(COC(=O)NCCO)C3=C(C(=O)C(C)=C(N)C3=O)N1CC1NC12` (stereo unspecified), the TGI was over 264 µM.
On to `Nc1nccc(-c2c(-c3ccc(F)cc3)nn3cc(C(F)(F)F)ccc23)n1`, for which the GI50 is over 25 µM and the TGI is over 25 µM.
For `C#Cc1ccc(-n2c(/C=C/c3ccc(O)cc3)nc3ncccc3c2=O)cc1`, the GI50 was 3.54 µM and the TGI is over 100 µM.
The corresponding values for `N#CC(C#N)=C/C=C(\Sc1ccc(Cl)cc1)c1ccc(F)cc1` are 0.171 µM and over 100 µM.
In the case of `CCSCC1CC(O)(c2ccccc2)C(c2ccccc2)C(c2ccc(F)cc2)O1` (stereo unspecified), the GI50 was 1.98 µM and the TGI amounted to 5.85 µM.
As to `CCO/C=C1\SC(=S)N(c2ccc(OCC)cc2)C1=O`, the TGI was over 100 µM.
In the case of `Nc1nc(=S)c2ncn(C3OC(COP(=O)(O)O)C(O)C3O)c2[nH]1` (stereo unspecified), the GI50 was 0.268 µM and the TGI was over 100 µM.
In the case of `O=C(Nc1ccc(OC(F)(F)Cl)cc1)c1cnc(N2CC[C@@H](O)C2)c(-c2ccn[nH]2)c1`, the GI50 is 10.8 µM and the TGI worked out at 50.9 µM.

A further assay has as its system RXF 393 renal. As to the kind of experiment: NCI anticancer screen, dose series, 48 h.
With `C=CCN(CC=C)C(=O)c1cc(C)nc2c1c(=O)n(-c1ccccc1)c(=O)n2CCCN1CCN(c2ccccc2OC)CC1`, the GI50 is over 50 µM and the TGI was over 50 µM.
Take `COCCOC1=C(Cl)C(=O)c2ccccc2C1=O`: the GI50 is 3.31 µM and the TGI worked out at 10.2 µM.
Consider `CCN(CC)c1ccc2nc3ccc(=[N+](CC)CC)cc-3oc2c1`, for which the GI50 was 1.63 µM and the TGI is 9.84 µM.
In the case of `CCOC(=O)/C(=C\c1cccc(C)c1)C(C)=O`, the TGI was found to be 24.9 µM.
Turning to `COC12C(COC(=O)NCCO)C3=C(C(=O)C(C)=C(N)C3=O)N1CC1NC12` (stereo unspecified), the GI50 is 141 µM and the TGI is over 264 µM.
For `Nc1nccc(-c2c(-c3ccc(F)cc3)nn3cc(C(F)(F)F)ccc23)n1` the same measures were over 25 µM and over 25 µM.
For the compound `C#Cc1ccc(-n2c(/C=C/c3ccc(O)cc3)nc3ncccc3c2=O)cc1`, the GI50 is 1.48 µM and the TGI turned out to be 4.41 µM.
As for `N#CC(C#N)=C/C=C(\Sc1ccc(Cl)cc1)c1ccc(F)cc1`, the GI50 is 5.36 µM and the TGI is over 100 µM.
For `CCSCC1CC(O)(c2ccccc2)C(c2ccccc2)C(c2ccc(F)cc2)O1` (stereo unspecified) the same measures were 1.87 µM and 3.57 µM.
For `CCO/C=C1\SC(=S)N(c2ccc(OCC)cc2)C1=O`, the TGI was over 100 µM.
Take `Nc1nc(=S)c2ncn(C3OC(COP(=O)(O)O)C(O)C3O)c2[nH]1` (stereo unspecified): the GI50 is 1.43 µM and the TGI was 9.75 µM.
On to `O=C(Nc1ccc(OC(F)(F)Cl)cc1)c1cnc(N2CC[C@@H](O)C2)c(-c2ccn[nH]2)c1`, for which the GI50 was 15.8 µM and the TGI stood at 35.6 µM.

The subject of another assay is MOLT-4 leukemia. As to the kind of experiment: NCI anticancer screen, dose series, 48 h.
For the compound `C=CCN(CC=C)C(=O)c1cc(C)nc2c1c(=O)n(-c1ccccc1)c(=O)n2CCCN1CCN(c2ccccc2OC)CC1`, the GI50 is over 50 µM and the TGI was over 50 µM.
For `COCCOC1=C(Cl)C(=O)c2ccccc2C1=O`, the GI50 is 1.81 µM and the TGI is 42 µM.
In the case of `CCN(CC)c1ccc2nc3ccc(=[N+](CC)CC)cc-3oc2c1`, the GI50 was 0.286 µM and the TGI is over 100 µM.
As to `CCOC(=O)/C(=C\c1cccc(C)c1)C(C)=O`, the TGI was determined as 66.6 µM.
In turn, `COC12C(COC(=O)NCCO)C3=C(C(=O)C(C)=C(N)C3=O)N1CC1NC12` (stereo unspecified) came in with a TGI of over 264 µM.
Take `Nc1nccc(-c2c(-c3ccc(F)cc3)nn3cc(C(F)(F)F)ccc23)n1`: the GI50 was over 25 µM and the TGI was over 25 µM.
With `C#Cc1ccc(-n2c(/C=C/c3ccc(O)cc3)nc3ncccc3c2=O)cc1`, the GI50 is 7.35 µM and the TGI is over 100 µM.
`N#CC(C#N)=C/C=C(\Sc1ccc(Cl)cc1)c1ccc(F)cc1`: the GI50 was 0.281 µM.
Take `CCSCC1CC(O)(c2ccccc2)C(c2ccccc2)C(c2ccc(F)cc2)O1` (stereo unspecified): the GI50 is 1.61 µM and the TGI was determined as 4.91 µM.
`CCO/C=C1\SC(=S)N(c2ccc(OCC)cc2)C1=O` yielded a TGI of over 100 µM.
For the compound `Nc1nc(=S)c2ncn(C3OC(COP(=O)(O)O)C(O)C3O)c2[nH]1` (stereo unspecified), the GI50 is 0.354 µM and the TGI is over 100 µM.
Consider `O=C(Nc1ccc(OC(F)(F)Cl)cc1)c1cnc(N2CC[C@@H](O)C2)c(-c2ccn[nH]2)c1`, for which the GI50 is 9.23 µM and the TGI amounted to 31.7 µM.

The next assay concerns DU-145 prostate. As to the kind of experiment: NCI anticancer screen, dose series, 48 h.
For `C=CCN(CC=C)C(=O)c1cc(C)nc2c1c(=O)n(-c1ccccc1)c(=O)n2CCCN1CCN(c2ccccc2OC)CC1`, the GI50 was over 50 µM and the TGI is over 50 µM.
Take `COCCOC1=C(Cl)C(=O)c2ccccc2C1=O`: the GI50 is 3.1 µM and the TGI was found to be 10.7 µM.
Turning to `CCN(CC)c1ccc2nc3ccc(=[N+](CC)CC)cc-3oc2c1`, the GI50 was 0.522 µM and the TGI stood at 20.9 µM.
With `CCOC(=O)/C(=C\c1cccc(C)c1)C(C)=O`, the TGI came to 38.7 µM.
In turn, `COC12C(COC(=O)NCCO)C3=C(C(=O)C(C)=C(N)C3=O)N1CC1NC12` (stereo unspecified) gave a TGI of 236 µM.
On to `Nc1nccc(-c2c(-c3ccc(F)cc3)nn3cc(C(F)(F)F)ccc23)n1`, for which the GI50 is over 25 µM and the TGI is over 25 µM.
Consider `C#Cc1ccc(-n2c(/C=C/c3ccc(O)cc3)nc3ncccc3c2=O)cc1`, for which the GI50 was 4.1 µM and the TGI is 76.5 µM.
In the case of `N#CC(C#N)=C/C=C(\Sc1ccc(Cl)cc1)c1ccc(F)cc1`, the GI50 was 0.525 µM and the TGI was over 33.6 µM.
For `CCSCC1CC(O)(c2ccccc2)C(c2ccccc2)C(c2ccc(F)cc2)O1` (stereo unspecified) the same measures were 2.75 µM and 6.99 µM.
In turn, `CCO/C=C1\SC(=S)N(c2ccc(OCC)cc2)C1=O` registered a TGI of over 100 µM.
For the compound `Nc1nc(=S)c2ncn(C3OC(COP(=O)(O)O)C(O)C3O)c2[nH]1` (stereo unspecified), the GI50 is 0.577 µM and the TGI was over 100 µM.
For `O=C(Nc1ccc(OC(F)(F)Cl)cc1)c1cnc(N2CC[C@@H](O)C2)c(-c2ccn[nH]2)c1` the same measures were 13.2 µM and 43.3 µM.

The next assay relates to OVCAR-5 ovarian. As to the kind of experiment: NCI anticancer screen, dose series, 48 h.
For the compound `C=CCN(CC=C)C(=O)c1cc(C)nc2c1c(=O)n(-c1ccccc1)c(=O)n2CCCN1CCN(c2ccccc2OC)CC1`, the GI50 was over 50 µM and the TGI was over 50 µM.
Take `COCCOC1=C(Cl)C(=O)c2ccccc2C1=O`: the GI50 was 3.22 µM and the TGI came out at 9.52 µM.
For `CCN(CC)c1ccc2nc3ccc(=[N+](CC)CC)cc-3oc2c1`, the GI50 was 0.442 µM and the TGI is 2.92 µM.
The compound `CCOC(=O)/C(=C\c1cccc(C)c1)C(C)=O` gave a TGI of 31 µM.
Consider `COC12C(COC(=O)NCCO)C3=C(C(=O)C(C)=C(N)C3=O)N1CC1NC12` (stereo unspecified), for which the GI50 was 78.1 µM and the TGI is over 264 µM.
Take `Nc1nccc(-c2c(-c3ccc(F)cc3)nn3cc(C(F)(F)F)ccc23)n1`: the GI50 is over 25 µM and the TGI is over 25 µM.
With `C#Cc1ccc(-n2c(/C=C/c3ccc(O)cc3)nc3ncccc3c2=O)cc1`, the GI50 was 32.3 µM and the TGI is over 100 µM.
For the compound `N#CC(C#N)=C/C=C(\Sc1ccc(Cl)cc1)c1ccc(F)cc1`, the GI50 was 1.37 µM and the TGI is 15.3 µM.
For `CCSCC1CC(O)(c2ccccc2)C(c2ccccc2)C(c2ccc(F)cc2)O1` (stereo unspecified), the GI50 is 2.08 µM and the TGI was 4.91 µM.
With `CCO/C=C1\SC(=S)N(c2ccc(OCC)cc2)C1=O`, the TGI was over 100 µM.
With `Nc1nc(=S)c2ncn(C3OC(COP(=O)(O)O)C(O)C3O)c2[nH]1` (stereo unspecified), the GI50 is 0.752 µM and the TGI was over 100 µM.
With `O=C(Nc1ccc(OC(F)(F)Cl)cc1)c1cnc(N2CC[C@@H](O)C2)c(-c2ccn[nH]2)c1`, the GI50 was 12.9 µM and the TGI is 34.2 µM.
